Reference: US20140199277A1, “Methods of Treatment of Retinal Degeneration Diseases” (priority 2011, published 2014)

What was measured:
[1] = test system: β-catenin signalling; assay: Activation of β-catenin signalling in treated HSPCs (RT-PCR of Axin2, nuclear translocation of β-catenin); format: cell-based, mouse
From the text: According to Treatment A, activation of the Wnt/β-catenin signalling pathway is, at least partially, provided by the implanted cells having their Wnt/β-catenin signalling pathway activated and being selected from the group consisting of a hematopoietic stem cell, a progenitor cell, and a mesenchymal stem cell. The subject to be treated may also have activated the Wnt/β-catenin signalling pathway after retinal damage or injury. In general, the Wnt/β-catenin signalling pathway is activated when the target genes are transcribed; by illustrative, activation of the Wnt/β-catenin signalling pathway may be confirmed by conventional techniques, for example, by analyzing the expression of the target genes, e.g., Axin2, by means known by the skilled person in the art to analyze the expression of genes, such as, for example, RT-PCR (reverse transcription-polymerase chain reaction), or by detection of β-catenin translocation in the nuclei of the cells by conventional techniques, such as, for example, by immunostaining, or by detecting the phosphorylation of Dishevelled or the phosphorylation of the LRP tail, etc.
The stem cells (SCs) were left non-treated or were pretreated with 100 ng/ml Wnt3a or 1 μM BIO, for 24 h, and finally 5×10^5 cells were injected intravitreally into the eyes of the anaesthetised mice. […]

[2] = test system: Nestin-CRE transgene; assay: Endogenous BM cell fusion-mediated reprogramming induced by intravitreal BIO in Nestin-Cre mice with BM^R26Y; format: in vivo, mouse; conditions: 24 h
Experimental: BM transplantation was conducted as previously reported with minor modifications. The BM of 4- to 6-week-old R26Y or Nestin-Cre recipient mice was reconstituted with BM cells from the tibias and femurs of RFP/CRE or R26Y transgenic mice respectively. BM cells (1×10^7 cells) were injected intravenously into the recipients 3 hours after irradiation with γ-rays (9 Gy). The eyes of the recipients were protected with lead shields to prevent radiation-induced damage (radiation retinopathy). Four weeks after transplantation, the peripheral blood of chimeric mice was extracted from the tail vein, and the reconstituted BM was assessed.
For fluoresceine immunostaining, the primary antibodies used were: anti-Nanog (1:200, R&D), anti-Oct4 (1:100, AbCam), anti-Nestin (1:300, Abcam), anti-GATA4 (1:500, Abcam), anti-Otx2 (1:200, Abcam), anti-Noggin (1:200, Abcam), anti-Hand1 (1:400, Abcam), anti-Tuj-1 (1:100, Abcam), anti-Thy1.1 (1:100, Abcam), anti-syntaxin (1:50, Sigma), anti-glutamine synthetase (Sigma, 1:100) anti-Annexin V (1:200, Abcam), anti-Ki67 (Sigma, 1.100) and anti-BrdU (1:300, Sigma). The secondary antibodies used were: anti-mouse IgG and anti-rabbit IgG antibodies conjugated with Alexa Fluor 488, Alexa Fluor 546 or Alexa Fluor 633 (1:1000; Molecular Probes, Invitrogen).
(§1) The numbers of immunoreactive or of Nanog-GFP- and -YFP-positive cells within three different retinal areas (40× field) were counted in individual sections. A total of ten serial sections were examined for each eye, from at least three different mice. For statistical analysis, the data were expressed as means±SEM, as pooled from at least three independent experiments, each carried out in duplicate. The experiments were performed using at least three different mice. Differences were examined using the unpaired Student t-test.

[3] = test system: neural progenitor cells; conditions: cited from earlier work; for reprogramming of neural precursor cells after cell fusion: periodic activation of the Wnt/β-catenin pathway in ESCs
[4] = test system: retinal neurons; assay: Damage-dependent cell fusion in vivo after intravitreal transplantation in R26Y eyes; set-up: species or system mouse; conditions: NMDA-damaged eyes of R26Y mice
Experimental: (§2) Mice at the age of 3 months were anaesthetised by injection of ketamine: metomidine (80 mg/kg: 1.0 mg/kg, intraperitoneal (i.p.)). To induce retinal damage, the animals were treated intravitreally with 2 μl of 20 mM N-methyl-D-aspartate (NMDA) (total 40 nmol; Sigma) for 24 h [Timmers et al., Mol Vis 7, 131-137 (2001)]. Control eyes received 2 μl PBS. For the BrdU incorporation assays, the mice received intraperitoneal (i.p.) BrdU administration of 50 mg/kg body weight.
Retinal stem and progenitor cells (RSPCs) were isolated from the ciliary margin of adult Cre mice as previously described [Sanges et al., Proc Natl Acad Sci USA 103, 17366-17371 (2006)]. […]
(§3) Tissues were fixed by immersion in 4% paraformaldehyde overnight, and then embedded in OCT compound (Tissue-Tek). Horizontal serial sections of 10 μm thickness were processed for immunohistochemistry, and visualisation of Nanog-GFP and Rosa26-YFP fluorescence was performed by fluorescent microscopy.
(§4) Percentages of GFP and YFP positive cells were evaluated counterstaining the tissue sections with DAPI (Vectashield, Vector Laboratories, Burlingame, Calif., USA), and they were photographed using either an Axioplan microscope (Zeiss) or a Leica laser confocal microscope system.
The numbers of immunoreactive or of Nanog-GFP- and -YFP-positive cells within three different retinal areas (40× field) were counted in individual sections. […]

[5] = test system: Nanog-GFP transgene; assay: In-vivo reprogramming of retinal neurons after fusion, Nanog-GFP-puro mice; set-up: species or system mouse; conditions: for GFP-positive cells after transplantation of pretreated ESCs: ESCs pretreated before transplantation, NMDA-injured eyes
Experimental: as §2
(§5) The stem cells (SCs) were left non-treated or were pretreated with 100 ng/ml Wnt3a or 1 μM BIO, for 24 h, and finally 5×10^5 cells were injected intravitreally into the eyes of the anaesthetised mice. The mice were sacrificed by cervical dislocation, and their eyeballs were enucleated for histological analyses.
as §3, §4, §1

[6] = test system: human GSK-3; conditions: cited from earlier work
[7] = test system: Nestin-CRE transgene; assay: In-vivo reprogramming of retinal neurons after fusion, Nestin-CRE mice; set-up: species or system mouse; conditions: injected immediately after NMDA, HSPCs after 24 h
Experimental: as §2, §5, §3
Percentages of GFP and YFP positive cells were evaluated counterstaining the tissue sections with DAPI (Vectashield, Vector Laboratories, Burlingame, Calif., USA), and they were photographed using either an Axioplan microscope (Zeiss) or a Leica laser confocal microscope system. […]

[8] = test system: β-catenin; assay: β-catenin immunofluorescence in retinal sections of NMDA-treated eyes; format: in vivo, mouse; conditions: NMDA-damaged eyes
Experimental: FIG. 12. Analysis of reprogramming of retinal neurons after fusion. (A) Immunofluorescence staining using an anti β-catenin antibody (red) was performed on sections from eyes treated either with NMDA, with both NMDA and DKK1 or untreated as control. The expression and nuclear accumulation of β-catenin in retinal cells detected in NMDA-damaged eyes (red arrows) is reduced after treatment with DKK1. Scale bar: 20 μm. (B) Schematic representation of in-vivo reprogramming experimental plan. Red-labelled SPCs either non-treated (control), or treated for 24 h with BIO were injected in NMDA-damaged or undamaged eyes of Nanog-GFP-Puro recipient mice. The expression of GFP in reprogrammed hybrids was analysed one day after injection. […] Nuclei were counterstained with DAPI.
To assess the role of activation of the endogenous Wnt/β-catenin signalling pathway in the reprogramming of retinal neurons, in both of these mouse models, DKK1 was also injected immediately after NMDA injection; DKK1 is an inhibitor of the Wnt/β-catenin pathway [Osakada et al. (2007) cited supra, FIG. 12A]. HSPCs were transplanted after 24 h, and mice were sacrificed 24 h later.

Molecule: O=C1Nc2cc(Br)ccc2/C1=C1/Nc2ccccc2/C1=N\O [BIO, 6-bromoindirubin-3'-oxime]
- β-catenin signalling in HSPCs [1]: activates β-catenin signalling
- YFP-positive hybrids Annexin-V positive ([2]; NMDA+BIO intravitreal): 1%
- YFP-positive hybrids positive for Ki67 ([2]; NMDA+BIO intravitreal): About 8%
- YFP-positive hybrids positive for Nanog ([2]; NMDA+BIO intravitreal): 70%
- YFP-positive hybrids positive for Oct4 ([2]; NMDA+BIO intravitreal): 50%
- YFP-positive cells in the gcl and inl ([2]; intravitreal with NMDA): observed
- fusion efficiency of ESCs with neural progenitor cells ([3]; in vitro): does not increase the fusion efficiency
- reprogramming of neural precursor cells after cell fusion [3]: strongly enhances
- effect of pre-treatment on fusion efficiency of HSPCs, ESCs or RSPCs [4]: did not enhance the fusion efficiency
- GFP-positive cells after transplantation of pretreated ESCs [5]: strikingly increased

Molecule: Nc1nc(NCCNc2ncc(-n3ccnc3)c(-c3ccc(Cl)cc3Cl)n2)ccc1[N+](=O)[O-] [CHIR 98014, 6-pyridinediamine, N6-[2-[[4-(2,4-dichlorophenyl)-5-(1H-imidazol-1-yl)-2-pyrimidinyl]amino]ethyl]-3-nitro-]
- inhibition of human GSK-3 [6]: potently

Molecule: Cc1c[nH]c(-c2cnc(NCCNc3ccc(C#N)cn3)nc2-c2ccc(Cl)cc2Cl)n1 [CHIR 99021, 6-{2-[4-(2,4-dichloro-phenyl)-5-(4-methyl-1H-imidazol-2-yl)-pyrimidin-2-ylamino]-ethylamino}-nicotinonitrile]
- inhibition of human GSK-3 [6]: potently

B1: DKK1: an inhibitor of the Wnt/β-catenin pathway (protein, UniProt O94907 32-266, looked up)
Dickkopf-related protein 1: TLNSVLNSNAIKNLPPPLGGAAGHPGSAVSAAPGILYPGGNKYQTIDNYQPYPCAEDEECGTDEYCASPTRGGDAGVQICLACRKRRKRCMRHAMCCPGNYCKNGICVSSDQNHFRGEIEETITESFGNDHSTLDGYSRRTTLSSKMYHTKGQEGSVCLRSSDCASGLCCARHFWSKICKPVLKEGQVCTKHRRKGSHGLEIFQRCYCGEGLSCRIQKDHHQASNSSRLHTCQRH
- reprogramming of neuron-HSPC hybrids [7]: almost completely blocked
- expression and nuclear accumulation of β-catenin in retinal cells [8]: reduced
- reprogramming of neuron-HSPC hybrids ([5]; injected immediately after NMDA, HSPCs after 24 h, Nanog-GFP-puro mice): almost completely blocked

B2: Wnt3a: Wnt protein isoform, Wnt/β-catenin signalling pathway activator (protein, UniProt P56704 19-352, looked up)
Protein Wnt-3a: SYPIWWSLAVGPQYSSLGSQPILCASIPGLVPKQLRFCRNYVEIMPSVAEGIKIGIQECQHQFRGRRWNCTTVHDSLAIFGPVLDKATRESAFVHAIASAGVAFAVTRSCAEGTAAICGCSSRHQGSPGKGWKWGGCSEDIEFGGMVSREFADARENRPDARSAMNRHNNEAGRQAIASHMHLKCKCHGLSGSCEVKTCWWSQPDFRAIGDFLKDKYDSASEMVVEKHRESRGWVETLRPRYTYFKVPTERDLVYYEASPNFCEPNPETGSFGTRDRTCNVSSHGIDGCDLLCCGRGHNARAERRREKCRCVFHWCCYVSCQECTRVYDVHTCK
- reprogramming of neural precursor cells after cell fusion [3]: strongly enhances
- GFP-positive cells after transplantation of pretreated ESCs [5]: strikingly increased
